Assay results as given in article PMC6268528, “3-Phenylcoumarins as Inhibitors of HIV-1 Replication” (Molecules, 2012).
Like-named read-outs stand apart in the source and are kept apart here.

Assays:
HIV-1 [1] = assay: Recombinant virus (RV) assay, luciferase reporter virus on MT-2 cells; format: cell-based; settings: for rank as inhibitor of HIV replication, in words: RV assay; for fold lesser potent than 11 in the RV assay: relative to compound 11
Procedure: We have synthesized fourteen 3-phenylcoumarin derivatives and evaluated their anti-HIV activity. Antiviral activity was assessed on MT-2 cells infected with viral clones carrying the luciferase gene as reporter. Inhibition of HIV transcription and Tat function were tested on cells stably transfected with the HIV-LTR and Tat protein. […] The antiviral effect of the 4-hydroxycoumarin derivative 19 correlates with its specific inhibition of Tat functions, while compound 8, 3-(2-chlorophenyl)coumarin, seems to act through a mechanism unrelated to the molecular targets considered in this research.
(§1) In the characterization of anti-HIV activity, the effect of these coumarins on Tat and NF-κB functions has been evaluated in a similar manner as we described in a previous publication. We have used two transfected 5.1 cell lines, in which we measured NF-κB activation induced by TNFα [42] and HeLa-Tat-Luc cells, in which the HIV-1 LTR is directly activated by the HIV-1 Tat protein. Most of the compounds were submitted for further evaluation through a HeLa-Tet-ON assay in order to determine the selectivity of their action. To avoid missing compounds acting through another mechanism, all substances were also evaluated using a recombinant virus (RV) assay. In this system, a luciferase reporter gene was cloned in full-length infectious DNA. As a result, the measured luciferase activity is therefore proportional to viral replication.
(§2) The anti-HIV activity of these coumarins on Tat and NF-κB functions has been analysed. To this aim, we have used two stably transfected cell lines. The previously described 5.1 cell line is a Jurkat-derived clone stably transfected with a plasmid containing the luciferase gene under the control of HIV-LTR. In this cell clone, activation with TNFα induces NF-κB activation and subsequent HIV-1 expression. We have also analyzed the anti-HIV activity in HeLa-Tat-Luc cells, in which the HIV-1 LTR is directly activated by the HIV-1 Tat protein. A compound was considered active in one assay if it inhibited the target function by more than 50% (NF-κB) or 30% (Tat) at either 25 or 50 μM concentration. The active compounds were submitted for further evaluation through a HeLa-Tet-ON assay, as previously described. In the Hela-Tet-ON cells the luciferase expression is under control of an artificial promoter that can be activated by tetracycline. Therefore, compounds that inhibit tetracycline-induced luciferase activity were considered non-specific for luciferase-based anti-HIV assays and were not examined further, and those showing specific activity (non-inhibitors in HeLa-Tet-ON cells) were analysed using a recombinant virus (RV) assay. […] In this system, a luciferase reporter gene has been cloned in full-length infectious DNA. The measured luciferase activity is therefore directly proportional to the replication of the virus. This assay is more sensitive and reliable than classic infectious assays. Cell viability was evaluated in non-infected treated cultures following the same protocol as in the recombinant virus assay and measuring cell toxicity with a classical MTT assay. IC50 and CC50 were calculated using GraphPad Prism software [non-linear regression, log (inhibitor) vs. response].

non-infected MT-2 cells [2] = assay: Cell viability, MTT assay in non-infected treated cultures; format: cell-based; set-up: Toxicity (%) CC50: unit not given here
Text: as §2

NF-κB [3] = assay: 5.1 cell line + TNFα, HIV-LTR luciferase (NF-κB activation); format: cell-based; settings: for inhibition at 50 µM: read-out: Antiviral activity 5.1 + TNFα 50 µM (inhibition of NF-κB function); for inhibition at 25 µM: read-out: Antiviral activity 5.1 + TNFα 25 µM (inhibition of NF-κB function); for specificity of NF-κB inhibition, in words: with HeLa-Tet-ON evaluation
Text: as §1, §2

HIV-1 Tat protein [4] = assay: HeLa-Tat-Luc cells, HIV-1 LTR activated by Tat; format: cell-based; settings: for inhibition at 25 µM: Human immunodeficiency virus 1, read-out: Antiviral activity Hela-Tat-luc 25 µM (inhibition of Tat function); for inhibition at 50 µM: Human immunodeficiency virus 1, read-out: Antiviral activity Hela-Tat-luc 50 µM (inhibition of Tat function); for anti-Tat activity and specificity, in words: HeLa-Tat-Luc and Hela-Tet-ON assays
Text: as §1, §2

[5] = tested on: tetracycline-induced luciferase activity in HeLa-Tet-ON cells; assay: HeLa-Tet-ON specificity assay; format: cell-based; set-up: key: S: specific; U: unspecific modes of action
Text: as §1, §2

NF-κB [6] = tested on: NF-κB; set-up: method as in PMID 15911030; settings: comparison data, cited from earlier work
HIV-1 Tat protein [7] = tested on: HIV-1 Tat protein; set-up: method as in PMID 15911030; settings: comparison data; cited from earlier work
[8] = tested on: tetracycline-induced luciferase activity in HeLa-Tet-ON cells; set-up: method as in PMID 15911030; key: S: specific; U: unspecific modes of action; settings: comparison data; cited from earlier work
HIV-1 [9] = tested on: HIV-1; set-up: method as in PMID 15911030; settings: comparison data; read-out: RV (VIH) IC50; cited from earlier work
non-infected MT-2 cells [10] = tested on: non-infected MT-2 cells; set-up: method as in PMID 15911030; settings: comparison data; read-out: Toxicity CC50; cited from earlier work
[11] = Human immunodeficiency virus 1, MT2, read-out: RV (VIH) IC50

| SMILES | inhibition at 50 µM (NF-κB [3]) [%] | inhibition at 25 µM (HIV-1 Tat protein [4]) [%] | inhibition at 50 µM (HIV-1 Tat protein [4]) [%] | HeLa-Tet-ON 50 µM (specific / unspecific mode of action) [5] | IC50 (HIV-1 [1]; [11]) [µM] | Toxicity (%) CC50 (non-infected MT-2 cells [2]; MTT, non-infected cultures) | melting point [°C] | inhibitory activity in the NF-κB test, in words (NF-κB [3]; 50 µM) | other results |
| --- | --- | --- | --- | --- | --- | --- | --- | --- | --- |
| Cc1cn([C@H]2C[C@H](N=[N+]=[N-])[C@@H](CO)O2)c(=O)[nH]c1=O [AZT, reference compound] | – | – | – | – | – | – | – | – | IC50 (HIV-1 [1]; recombinant virus, luciferase, read-out: RV (VIH) IC50): 0.01 µM; CC50 (non-infected MT-2 cells [2]; comparison drug, read-out: Toxicity CC50): > 1 µM |
| O=c1oc2ccccc2cc1-c1ccccc1 [Compound 7, 3-Phenyl-2H-chromen-2-one] | 21.7 ± 3 | 26.8 ± 2.9 | 33.7 ± 1 | S | 130 ± 11.4 | >50 | – | – | – |
| O=c1oc2ccccc2cc1-c1ccccc1Cl [Compound 8, 3-(2-Chlorophenyl)-2H-chromen-2-one] | -28.7 ± 4 | – | 17.6 ± 2.1 | S | 20.7 ± 1.9 | >50 | 186 to 188 | – | rank as inhibitor of HIV replication, in words (HIV-1 [1]): second more potent replication inhibitor |
| O=c1oc2ccccc2cc1-c1ccc(Cl)cc1 [Compound 9, 3-(4-Chlorophenyl)-2H-chromen-2-one] | 33 ± 2.33 | – | -4.9 ± 0.8 | – | > 195 | >50 | 190 to 192 | – | – |
| COc1ccc(-c2cc3ccccc3oc2=O)cc1 [Compound 10, 3-(4-Methoxyphenyl)-2H-chromen-2-one] | 61.2 ± 2.4 | 73.5 ± 6.7 | 66.6 ± 3.4 | U | 73 ± 8.6 | – | 141 to 143 | fair inhibitory activity | anti-Tat activity and specificity, in words (HIV-1 Tat protein [4]): potent though unspecific anti-Tat activity; fold lesser potent than 11 in the RV assay (HIV-1 [1]): 4-5 fold |
| CSc1ccc(-c2cc3ccccc3oc2=O)cc1 [Compound 11, 3-(4-Methylsulfanylphenyl)-2H-chromen-2-one] | 81.6 ± 5.6 | 77.5 ± 8.5 | 80.1 ± 5.6 | U | 18.2 ± 0.2 | >50 | 157 to 159 | fair inhibitory activity | inhibitory activity in the NF-κB test, in words (NF-κB [3]; 25 μM): confirmed; inhibition at 25 µM (NF-κB [3]): 84.3 ± 3%; anti-Tat activity and specificity, in words (HIV-1 Tat protein [4]): potent though unspecific anti-Tat activity; rank as inhibitor of HIV replication, in words (HIV-1 [1]): most potent inhibitor of HIV replication |
| O=c1oc2ccccc2cc1-c1ccc(Cl)cc1Cl [Compound 12, 3-(2,4-Dichlorophenyl)-2H-chromen-2-one] | -40.9 ± 2.3 | – | 14.1 ± 0.6 | S | > 172 | >50 | 226 to 228 | – | – |
| O=c1oc2ccccc2cc1-c1ccc2c(c1)OCO2 [Compound 13, 3-(Benzo[d][1,3]dioxol-5-yl)-2H-chromen-2-one] | 68.5 ± 3.4 | 32.8 ± 4.3 | 39.5 ± 2.3 | S | 138 ± 22.3 | 16.7 ± 3.4 | 168 to 170 | fair inhibitory activity | specificity of NF-κB inhibition, in words (NF-κB [3]): specific inhibitors of the NF-κB function |
| COc1ccc(-c2cc3ccccc3oc2=O)cc1OC [Compound 14, 3-(3,4-Dimethoxyphenyl)-2H-chromen-2-one] | -23 ± 2.9 | – | -25.1 ± 5.3 | – | > 177 | >50 | 127 to 129 | – | – |
| COc1cc(-c2cc3ccccc3oc2=O)cc(OC)c1OC [Compound 15, 3-(3,4,5-Trimethoxyphenyl)-2H-chromen-2-one] | 49.7 ± 7 | 47.6 ± 6.2 | 35.1 ± 3.9 | U | 62.7 ± 13.1 | 42.8 ± 16.2 | 122 to 124 | fair inhibitory activity | specificity of NF-κB inhibition, in words (NF-κB [3]): unspecific |
| O=c1oc2cc(O)ccc2cc1-c1ccccc1 [Compound 16, 7-Hydroxy-3-phenyl-2H-chromen-2-one] | 59 ± 8.2 | – | 17.2 ± 0.5 | S | 81.4 ± 14 | >50 | – | fair inhibitory activity | specificity of NF-κB inhibition, in words (NF-κB [3]): specific inhibitors of the NF-κB function |
| COc1ccc(-c2cc3cccc(O)c3oc2=O)cc1 [Compound 17, 8-Hydroxy-3-(4-methoxyphenyl)-2H-chromen-2-one] | 87.8 ± 9.8 | 85.7 ± 3.4 | 88.3 ± 5.5 | U | 84.6 ± 12.1 | >50 | – | fair inhibitory activity | inhibitory activity in the NF-κB test, in words (NF-κB [3]; 25 μM): confirmed; inhibition at 25 µM (NF-κB [3]): 82.2 ± 3.1%; anti-Tat activity and specificity, in words (HIV-1 Tat protein [4]): potent though unspecific anti-Tat activity; fold lesser potent than 11 in the RV assay (HIV-1 [1]): 4-5 fold |
| COc1ccc2oc(=O)c(-c3ccccc3)c(O)c2c1 [Compound 18, 4-Hydroxy-6-methoxy-3-phenyl-2H-chromen-2-one] | – | – | 22.8 ± 3.4 | S | 186 ± 10.8 | – | – | – | inhibition at 50 µM (NF-κB [3]; 50 µM, 5.1 Jurkat-derived cells, TNFα): -3.5 ± 0.9%; Toxicity (%) CC50 (non-infected MT-2 cells [2]; human): >50 |
| COc1ccc2c(O)c(-c3ccccc3)c(=O)oc2c1 [Compound 19, 4-Hydroxy-7-methoxy-3-phenyl-2H-chromen-2-one] | -4.7 ± 0.3 | 48.9 ± 3.4 | 55.7 ± 4.9 | S | 23.8 ± 1.7 | >50 | 217 to 219 | – | inhibition at 25 µM (NF-κB [3]): -34.3 ± 5%; anti-Tat activity and specificity, in words (HIV-1 Tat protein [4]): modest, but specific inhibition |
| COc1ccc2c(Cl)c(-c3ccccc3)c(=O)oc2c1 [Compound 20, 4-Chloro-7-methoxy-3-phenyl-2H-chromen-2-one] | -21.2 ± 7 | – | -64.4 ± 10 | – | > 209 | 18.4 ± 8.2 | – | – | – |
| CC(C)=CCc1c(O)c(C(=O)C(C)C)c(O)c2c(-c3ccccc3)cc(=O)oc12 [Mesuol] | – | – | – | – | – | – | – | – | Antiviral activity 5.1 + TNFα 25 µM (NF-κB [6]; 25 µM): 71.0 ± 4.8%; Antiviral activity 5.1 + TNFα 50 µM (NF-κB [6]; 50 µM): 77.9 ± 4.9%; Antiviral activity Hela-Tat-luc 50 µM (HIV-1 Tat protein [7]): 71.3 ± 8.9%; HeLa-Tet-ON 50 µM (specific / unspecific) [8]: S; IC50 (HIV-1 [9]): 2.5 µM; CC50 (non-infected MT-2 cells [10]): > 4 µM |
